Where two headings read alike, the source gives them in different places.
How the values were obtained:
Solubility study = format: physicochemical
Hygroscopicity = format: physicochemical
[1] = Long term stability studies; format: physicochemical; settings: for Assay w/w, T12: 12 months; for Assay w/w, T0: start
[2] = tested on: BRCA1/2 mutant ovary cancer; test: Phase I clinical safety study, capsules; format: in vivo, human
PARP2 (aa2-583) = PARP2 (aa2-583) (Homo sapiens, UniProt Q9UGN5); test: PARP2 PARylation chemiluminescent assay; format: biochemical; settings: Crystalline Form C tested
Procedure: PARP1 and PARP2 enzymes were from the assay kits, while TNKS1 and TNKS2 enzymes were produced in-house. The assays were performed according to the manufacture's instruction. Briefly, H2A and H2B proteins were immobilized on the surface of plates and then incubated with a serial dilution of compounds and the target enzyme for 0.5 hr. Then, biotinylated NAD and DNA (no DNA needed for TNKS1 or TNKS2) were added to the wells to initiate reactions. The biotinylated PARsylation product was measured by chemiluminescence after adding streptavidin-HRP and HRP substrates.

human CYP3A = test: CYP3A induction; format: in vitro ADME
[3] = tested on: BRCA1 mutation breast cancer xenograft; test: BRCA1 mutation breast cancer xenograft model; format: in vivo; settings: at much lower dose than olaparib
[4] = Metabolism in human liver microsomes; format: in vitro ADME
[5] = Tissue distribution after oral administration in rats; format: in vivo; settings: 24 hours post-dosing
[6] = tested on: intracranial H209 xenografts; test: Intracranial H209 xenografts, combination with TMZ; format: in vivo, Mice; settings: Compound A added to TMZ, compared to TMZ single agent
PARP = test: In vivo pharmacodynamics: PARylation in MDA-MB-436 breast cancer xenografts; set-up: species or system BALB/c nude mice; settings: 4 hours after single oral dose at 0.34 mg/kg or higher
[7] = Excretion after oral administration in rats; format: in vivo
human CYP2B6 = test: CYP2B6 induction; format: in vitro ADME
human CYP1A2 = test: CYP1A2 induction; format: in vitro ADME
[8] = Metabolism in monkey liver microsomes; format: in vitro ADME
rat plasma protein = test: Plasma protein binding, rat; format: in vitro ADME
[9] = Plasma protein binding, monkey; format: in vitro ADME; settings: read-out: Plasma protein binding (PPB) (converted)
[10] = Plasma protein binding, dog; format: in vitro ADME; settings: read-out: Plasma protein binding (PPB) (converted)
[11] = Nonclinical toxicity, single and repeat dose studies up to 28 days; format: in vivo; settings: rats and dogs
Excerpt: The nonclinical toxicity profile of Compound A was characterized in both rats and dogs in single and repeat dose studies up to 28 days. The adverse effects included decrease in body weights or body weight gain and food consumption; decrease in WBC, NEUT, LYMP, RBC, HGB, HCT and APTT; and increase in PLT. The bone marrow was considered to be the major target organ and the severity of histopathological changes ranged from minimal to marked. […] […]. In summary, the available toxicological data are adequate to support the clinical development of Compound A on late stage and advanced cancer patients in phase I study. The toxicity could be monitored and manageable clinically.

Brain penetration = settings: in vivo
other CYP isozymes = test: Inhibition of other CYP isozymes; format: in vitro ADME; settings: human; read-out: IC50s for other CYP isozymes
[12] = Metabolism in dog liver microsomes; format: in vitro ADME
[13] = Plasma protein binding, mouse; format: in vitro ADME; settings: read-out: Plasma protein binding (PPB) (converted)
[14] = tested on: MDA-MB-436 cells (BRCA1 Deficient); test: Growth inhibition, CellTiter-Glo, 7-day exposure, MDA-MB-436; format: cell-based, human; settings: for EC50: 7-day exposure, BRCA1 Deficient, read-out: EC50 for growth inhibition, MDA-MB-436 (Table 20)
Procedure: (§1) MDA-MB-231 cells that is not BRCA gene mutant or other homologous recombination deficient were maintained in DMEM supplemented with fetal bovine serum (10% FBS), 100 units/ml penicillin and 0.1 mg/ml streptomycin. BRCA1-deficient cell line MDA-MB-436 was maintained in RPMI-1640 supplemented with 10% FBS, 100 units/ml penicillin and 0.1 mg/ml streptomycin. Both two cell lines were kept at 95% humidity and 5% CO2 in a 37° C. incubator.
(§2) The number of tumor cells seeded per well of a 96-well plate was optimized for each cell line to ensure logarithmic growth over the 7 days treatment period. Cells were left to attach for 16 hours and then treated with specific concentrations of test compounds. Following a 7-day exposure to the compound, the growth-inhibitory activity of compounds was determined using CellTiter-Glo luminescent cell viability assay (Promega). Luminescent signal was measured using PHERAstar FS reader (BMG Labtech). Cell viability was expressed as relative to mock treatment control. EC50 values for growth inhibition were calculated by fitting dose-dependent data to the four-parameter logistic model using XLfit software.

MDA-MB-231 cells = test: Growth inhibition, CellTiter-Glo, 7-day exposure, MDA-MB-231; format: cell-based; settings: BRCA wild type
Procedure: as §1, §2

Pharmacokinetics in rat = format: in vivo
Procedure: (§3) The species used for the pharmacokinetic studies were rat and dog. Compound A had good to excellent oral bioavailability (>40%) in both species. Elimination half-lives ranged from 3.1 to 5.0 hours in rats and 1.5 to 2.5 hours in dogs after oral administration. […] Steady state volume of distribution in rats and dogs was 2.4 L/kg and 1.9 L/kg, respectively.

CYP2C9 = CYP2C9 (Homo sapiens, UniProt P11712); test: CYP2C9 inhibition; format: in vitro ADME
Pharmacokinetics in dog = format: in vivo
Procedure: as §3

CYP3A, CYP2C8 = test: CYP isoforms responsible for metabolism; format: in vitro ADME
[15] = Plasma protein binding, human; format: in vitro ADME; settings: read-out: Plasma protein binding (PPB) (converted)
[16] = Metabolism in mouse liver microsomes; format: in vitro ADME
[17] = Metabolism in rat liver microsomes; format: in vitro ADME
hERG current = hERG current (Homo sapiens, UniProt Q12809); test: hERG current; format: cell-based
[18] = tested on: Intracellular PARP activity; format: cell-based; settings: HeLa cells, H2O2 200 μM; read-out: IC50 (nM) in PARylation assay
Procedure: Upon incubation with hydrogen peroxide (H2O2), Intracellular PARP activity was induced and endogenous PAR level was elevated. The assay was performed as follows:
Cells were plated into a 96-well plate with clear bottom and black wall at a density of 5000 cells per well (100 μL). […] In the following day, H2O2 solution in PBS (final concentration 200 μM) was added and the plate was kept at 37° C. for 5 minutes. Then the medium was gently removed by plate inversion, and the cells were fixed by ice-cold MeOH at −20° C. for 20 minutes. […] After removal of solution and repeated wash with PBS, the PAR polymer level was estimated by ArrayScan VTI (ThermoFisher). Percent inhibition was determined on the basis of the residual enzyme activity in the presence of increasing PARP inhibitor concentration. IC50 values were calculated by fitting dose-dependent data to the four-parameter logistic model using XLfit software.

[19] = read-out: EC50 for growth inhibition, MDA-MB-231 (Table 20)

hERG current, sequence (Q12809 whole entry): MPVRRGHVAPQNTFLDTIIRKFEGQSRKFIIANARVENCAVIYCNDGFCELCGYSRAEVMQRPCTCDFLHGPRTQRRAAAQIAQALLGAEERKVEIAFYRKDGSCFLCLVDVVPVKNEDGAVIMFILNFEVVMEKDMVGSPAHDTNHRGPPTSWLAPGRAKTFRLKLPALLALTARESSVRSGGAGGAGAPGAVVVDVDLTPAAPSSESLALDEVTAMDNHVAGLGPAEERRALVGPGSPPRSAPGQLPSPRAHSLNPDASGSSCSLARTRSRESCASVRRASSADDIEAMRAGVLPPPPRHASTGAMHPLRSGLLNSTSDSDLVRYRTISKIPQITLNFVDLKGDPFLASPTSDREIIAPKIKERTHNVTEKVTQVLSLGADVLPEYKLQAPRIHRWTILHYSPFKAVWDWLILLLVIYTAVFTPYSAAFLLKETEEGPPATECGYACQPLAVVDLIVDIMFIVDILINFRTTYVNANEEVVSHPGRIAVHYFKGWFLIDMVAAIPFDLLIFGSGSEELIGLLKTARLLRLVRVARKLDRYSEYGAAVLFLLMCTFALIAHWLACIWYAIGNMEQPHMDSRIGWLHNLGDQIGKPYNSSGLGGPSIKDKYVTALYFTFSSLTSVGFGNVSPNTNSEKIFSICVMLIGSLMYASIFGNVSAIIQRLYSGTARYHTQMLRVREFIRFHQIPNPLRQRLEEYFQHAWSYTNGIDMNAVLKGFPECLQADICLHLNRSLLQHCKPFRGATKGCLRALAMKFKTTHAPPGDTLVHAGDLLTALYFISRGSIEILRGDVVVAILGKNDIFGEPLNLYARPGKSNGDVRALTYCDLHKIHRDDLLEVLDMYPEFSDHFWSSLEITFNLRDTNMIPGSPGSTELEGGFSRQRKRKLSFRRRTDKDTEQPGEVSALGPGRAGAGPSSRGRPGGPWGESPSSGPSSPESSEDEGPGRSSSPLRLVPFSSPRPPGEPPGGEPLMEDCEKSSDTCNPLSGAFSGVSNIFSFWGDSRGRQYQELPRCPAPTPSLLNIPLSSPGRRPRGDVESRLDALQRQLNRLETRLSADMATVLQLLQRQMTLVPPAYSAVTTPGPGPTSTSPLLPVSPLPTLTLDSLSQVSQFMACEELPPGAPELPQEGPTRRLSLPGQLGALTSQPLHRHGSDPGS
CYP2C9, sequence (P11712 whole entry): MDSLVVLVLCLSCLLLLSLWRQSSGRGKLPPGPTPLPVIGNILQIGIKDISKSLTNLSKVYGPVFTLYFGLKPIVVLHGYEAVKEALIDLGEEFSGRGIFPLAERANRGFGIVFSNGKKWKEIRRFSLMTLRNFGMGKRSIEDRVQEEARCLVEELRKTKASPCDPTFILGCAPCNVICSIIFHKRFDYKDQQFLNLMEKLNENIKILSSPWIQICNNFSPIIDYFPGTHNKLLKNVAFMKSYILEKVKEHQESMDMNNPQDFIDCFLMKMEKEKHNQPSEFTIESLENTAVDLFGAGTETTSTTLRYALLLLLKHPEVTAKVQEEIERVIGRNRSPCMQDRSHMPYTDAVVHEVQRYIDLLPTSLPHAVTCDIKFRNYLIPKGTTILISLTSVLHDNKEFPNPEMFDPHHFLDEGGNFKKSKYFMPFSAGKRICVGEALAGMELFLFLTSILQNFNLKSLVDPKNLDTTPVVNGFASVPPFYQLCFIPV
PARP2 (aa2-583), sequence (Q9UGN5 2-583): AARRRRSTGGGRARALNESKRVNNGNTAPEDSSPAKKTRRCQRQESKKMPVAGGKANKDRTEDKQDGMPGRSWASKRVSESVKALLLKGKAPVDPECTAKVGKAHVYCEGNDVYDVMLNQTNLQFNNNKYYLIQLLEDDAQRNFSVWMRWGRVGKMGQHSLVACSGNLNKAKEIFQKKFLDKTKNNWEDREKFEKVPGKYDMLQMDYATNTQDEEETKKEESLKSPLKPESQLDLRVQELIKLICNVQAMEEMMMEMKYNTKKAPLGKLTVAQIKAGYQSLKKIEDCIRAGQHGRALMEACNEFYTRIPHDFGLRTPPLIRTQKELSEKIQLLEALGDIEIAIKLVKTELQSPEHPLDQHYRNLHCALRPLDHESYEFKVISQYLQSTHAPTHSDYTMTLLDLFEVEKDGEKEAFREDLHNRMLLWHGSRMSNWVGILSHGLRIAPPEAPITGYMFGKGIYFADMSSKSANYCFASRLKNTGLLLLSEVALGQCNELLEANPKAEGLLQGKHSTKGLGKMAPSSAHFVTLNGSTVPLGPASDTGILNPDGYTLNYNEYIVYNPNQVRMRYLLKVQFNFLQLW

Compound: C[C@]12CCCN1CC1=NNC(=O)c3cc(F)cc4[nH]c2c1c34 [Compound A sesqui-hydrate, (R)-2-fluoro-10a-methyl-7,8,9,10,10a,11-hexahydro-5,6,7a,11-tetraazacyclohepta[def]cyclopenta[a]fluoren-4(5H)-one sesqui-hydrate]
- solubility in simulated gastric fluid (SGF) (Solubility study; SGF, pH=1.2): 4500 µg/mL
- solubility (Solubility study; simulated gastric fluid (SGF), pH 1.2, simulated gastric fluid, SGF, pH=1.2, read-out: solubility in simulated gastric fluid (SGF)): ~4500 µg/mL
- solubility in water (Solubility study; water): 40 µg/mL
- solubility (Solubility study; water, read-out: solubility in water): ~40 µg/mL
- hygroscopicity (Hygroscopicity): slightly hygroscopic
- crystal form and optical purity on storage ([1]; 25° C./60% RH and 40° C./75% RH, up to 12 months): no crystal form and optical purity changes were observed
- Assay w/w, T12 ([1]; 25° C./60% RH): 99.0%
- Assay w/w, T0 ([1]; 25° C./60% RH): 99.1%
- Assay w/w, T12 ([1]; 40° C./75% RH): 98.9%
- Assay w/w, T0 ([1]; 40° C./75% RH): 99.0%
- clinical safety and tolerability ([2]; 25 subjects, 2.5-120 mg bid, capsules): safe and well tolerated
- IC50 (PARP2 (aa2-583)): 0.00092 µM

Compound: C[C@]12CCCN1CC1=NNC(=O)c3cc(F)cc4[nH]c2c1c34 [Compound A, (R)-2-fluoro-10a-methyl-7,8,9,10,10a,11-hexahydro-5,6,7a,11-tetraazacyclohepta[def]cyclopenta[a]fluoren-4(5H)-one]
- induction of human CYP3A (human CYP3A): not an inducer
- tumor regression [3]: significantly induces tumor regression
- rate of metabolism [4]: slowly
- organ drug concentration as % of the peak concentration [5]: less than 10%
- animal survival [6]: significantly prolonged animal survival
- inhibition of PARylation (PARP): Potent inhibition of PARylation
- excreted in urine and bile [7]: Less than 1%
- induction of human CYP2B6 (human CYP2B6): not an inducer
- induction of human CYP1A2 (human CYP1A2): not an inducer
- rate of metabolism [8]: quickly
- Plasma protein binding (PPB) (rat plasma protein): 84.9%
- fraction unbound [9]: 0.111
- fraction unbound [10]: 0.21
- character of toxicity ([11]; 28-day recovery phase): dose dependent, correlated with systemic exposure and reversible
- major target organ of toxicity ([11]; up to 28 days): bone marrow
- brain penetration (Brain penetration): significant brain penetration
- IC50 (other CYP isozymes): > 10 µM
- rate of metabolism [12]: slowly
- fraction unbound [13]: 0.15
- sensitivity of MDA-MB-436 cells ([14]; BRCA1-deficient): profoundly sensitive
- EC50 ([14]; Homo sapiens, MDA-MB-436, 168 h): 0.041 ± 0.015 µM
- EC50 (MDA-MB-231 cells; Homo sapiens, MDA-MB-231, 168 h, read-out: EC50 for growth inhibition, MDA-MB-231): ~9 µM
- EC50 (MDA-MB-231 cells; Homo sapiens, MDA-MB-231, 168 h, read-out: EC50 for growth inhibition, MDA-MB-231 (Table 20)): ~9 µM
- accumulation following multiple oral dosing (Pharmacokinetics in rat): no accumulation
- bioavailability (Pharmacokinetics in rat; in vivo, po): > 40%
- clearance (Pharmacokinetics in rat; in vivo, rats): 8.67 to 15.2 mL/min/kg
- half-life (Pharmacokinetics in rat; in vivo, rats, oral administration, read-out: Elimination half-lives): 3.1 to 5 h
- Vd (Pharmacokinetics in rat; in vivo, rats, read-out: Steady state volume of distribution): 2.4 L/kg
- IC50 (CYP2C9): 6.48 µM
- accumulation following multiple oral dosing (Pharmacokinetics in dog): no accumulation
- clearance (Pharmacokinetics in dog; in vivo, dogs): 18.3 to 18.5 mL/min/kg
- half-life (Pharmacokinetics in dog; in vivo, dogs, oral administration, read-out: Elimination half-lives): 1.5 to 2.5 h
- Vd (Pharmacokinetics in dog; in vivo, dogs, read-out: Steady state volume of distribution): 1.9 L/kg
- bioavailability (Pharmacokinetics in dog; in vivo, po): > 40%
- CYP isoform responsible for metabolism (CYP3A, CYP2C8): CYP3A was the major CYP isoform
- mutagenicity (Ames assay): No mutagenicity
- fraction unbound [15]: 0.043
- rate of metabolism [16]: slowly
- rate of metabolism [17]: slowly
- clinical response ([2]; BRCA1/2 mutant ovary cancer patients): partial or complete responses
- IC50 (hERG current): 26 µM

Compound: O=C(c1cc(Cc2n[nH]c(=O)c3ccccc23)ccc1F)N1CCN(C(=O)C2CC2)CC1 [Olaparib, olaparib, reference compound]
- EC50 [14]: 0.021 ± 0.007 µM
- EC50 (MDA-MB-231 cells; [19]): ~5 µM

Compound: C[C@]1(c2nc3c(C(N)=O)cccc3[nH]2)CCCN1 [Veliparib, veliparib, reference compound]
- EC50 [14]: 0.82 ± 0.3 µM
- EC50 (MDA-MB-231 cells; [19]): > 10 µM
- IC50 [18]: 2.66 nM

From patent publication US10457680B2, “Process for preparing a PARP inhibitor, crystalline forms, and uses thereof” (BeiGene, Ltd., priority 2015, dated 2019)
